# Reference: publication PMC3652859, “Inhibitor Discovery of Full-Length New Delhi Metallo-β-Lactamase-1 (NDM-1)” (PLoS ONE, 2013)
# pIC50: −log10 of the molar value. Values joined by “and” are separate entries in the source; they are usually repeats but may differ in a detail not shown here. Equal entries are not always repeated. Where two headings read alike, the source gives them in different places.
# Key:
# full-length NDM-1 [1] = target: T1, full-length NDM-1 (Klebsiella pneumoniae, UniProt C7C422); assay type: biochemical, E. coli; parameters: The full-length NDM-1 enzyme was isolated to 95% purity as indicated by the SDS-PAGE; His6 tag (pET30a leader) (N, cleaved yes); made in house; host or cells: E. coli BL21 (DE3) carrying pET30a-NDM-1
# Excerpt: (§1) Benzylpenicillin (Sangon, Shanghai, China), ampicillin (Sangon, Shanghai, China), cefuroxime (Sigma, St. Louis, USA), ceftazidime (TCI, Shanghai, China), ceftizoxime (TCI, Shanghai, China), cefpiramide (Shandong Lukang, Shandong, China), imipenem (Shenzhen Haibin, Guangdong, China), meropenem (Zhejiang Hisun, Zhejiang, China) and aztreonam (Hunan Kelun, Hunan, China) were used as substrates for determining the steady-state kinetic constants.
# (§2) Hydrolysis of the antibiotics by NDM-1 was followed by monitoring the variation in the absorbance of the β-lactam solution in 20 mM HEPES buffer, pH 6.8, 0.25 M NaCl, 2 mM 1,4-Dithio-DL-threitol (DTT) (Sangon, Shanghai, China), 100 µM Zn(NO3)2. All the measurements were made on a UV−1800 spectrophotometer (Mapada, Shanghai, China). The reactions were performed in a total volume of 100 µl at 30°C. BSA (20 µg/ml) was added to diluted solutions of β-lactamase in order to prevent enzyme denaturation. […] The extinction coefficients and wavelengths used in the assays were those described by Laraki et al and Thomas et al. The steady-state kinetic parameters (K m and k cat) were determined more than three times by fitting the concentration dependence of initial rate measurements to the Michaelis−Menten equation using GraphPad Prism (GraphPad Software, La Jolla, America).
# [2] = test system: CO/N=C(\C(=O)N[C@@H]1C(=O)N2C(C(=O)O)=CCS[C@H]12)c1csc(N)n1; assay: purified protein, by the assay type; conditions: other: substrate hydrolysis, 20 mM HEPES pH 6.8, 30°C
# [3] = test system: Cc1cc(O)c(C(=O)N[C@@H](C(=O)N[C@@H]2C(=O)N3C(C(=O)O)=C(CSc4nnnn4C)CS[C@H]23)c2ccc(O)cc2)cn1; assay: purified protein, by the assay type; conditions: other: substrate hydrolysis, 20 mM HEPES pH 6.8, 30°C
# [4] = test system: CC(C)(O/N=C(\C(=O)N[C@@H]1C(=O)N2C(C(=O)[O-])=C(C[n+]3ccccc3)CS[C@H]12)c1csc(N)n1)C(=O)O; assay: purified protein, by the assay type; assay type: biochemical, E. coli; conditions: other: substrate hydrolysis, 20 mM HEPES pH 6.8, 30°C
# Excerpt: as §1, §2
# [5] = test system: C[C@@H](O)[C@H]1C(=O)N2C(C(=O)O)=C(SCCN=CN)C[C@H]12; assay: purified protein, by the assay type; assay type: biochemical, E. coli; conditions: other: substrate hydrolysis, 20 mM HEPES pH 6.8, 30°C
# Excerpt: as §1, §2
# [6] = test system: CO/N=C(\C(=O)N[C@@H]1C(=O)N2C(C(=O)O)=C(COC(N)=O)CS[C@H]12)c1ccco1; assay: purified protein, by the assay type; assay type: biochemical, E. coli; conditions: other: substrate hydrolysis, 20 mM HEPES pH 6.8, 30°C
# Excerpt: as §1, §2
# [7] = test system: CC1(C)S[C@@H]2[C@H](NC(=O)[C@H](N)c3ccccc3)C(=O)N2[C@H]1C(=O)O; assay: purified protein, by the assay type; assay type: biochemical, E. coli; conditions: other: substrate hydrolysis, 20 mM HEPES pH 6.8, 30°C
# Excerpt: as §1, §2
# [8] = test system: CC1(C)S[C@@H]2[C@H](NC(=O)Cc3ccccc3)C(=O)N2[C@H]1C(=O)O; assay: purified protein, by the assay type; assay type: biochemical, E. coli; conditions: other: substrate hydrolysis, 20 mM HEPES pH 6.8, 30°C
# Excerpt: as §1, §2
# [9] = test system: E. coli BL21 (DE3)/pET30a-NDM-1; assay: microbe, parasite or virus in culture; assay type: cell-based; conditions: for sensitization of the strain to clinically achievable concentrations of meropenem: inhibitor at the level of 100 µM; for sensitization of the strain to clinically achievable concentrations of meropenem / synergistic antibacterial activity with meropenem: result in words
# Procedure: E. coli BL21 (DE3) was used as a control in the experiment. E. coli BL21 (DE3)/pET30a-NDM-1 was grown overnight in MH broth media (Tianhe Microbial Agents, Hangzhou, China) containing kanamycin (30 µg/ml) at 37°C. Determination of antibacterial synergy was completed using a twofold serial dilution method, as recommended by CLSI guidelines. […] The 96-well microplates were incubated at 37°C with continuous shaking for 18 h and a reading at 630 nm was taken to determine minimum inhibitory concentrations (MICs), [22]. […] Each concentration reading was repeated three times. All of the above experiments were repeated at least twice.
# full-length NDM-1 [10] = target: T1, full-length NDM-1; assay: biochemical
# Procedure: The compounds to be tested were dissolved in DMSO prior to incubation with the enzyme, with the final concentration of DMSO in the assay not exceeding 0.5% (vol/vol). At concentrations below 0.5%, no effect of DMSO on the enzyme activity was observed. IC50s were deduced from a plot of percent loss of activity versus inhibitor concentration. […] The precision of these determinations was within the range of precision 10%.
# [11] = Solubility behaviour in testing buffer of the IC50 assay; assay type: physicochemical; conditions: result in words
# E. coli BL21 (DE3) = assay: MIC of meropenem against control strain; assay type: cell-based; conditions: Escherichia coli
# Procedure: E. coli BL21 (DE3)/pET30a-NDM-1, which is similar to clinical NDM-1-carrying isolates and safer than clinical isolates, was used to evaluate the potential ability of NDM-1 inhibitors to reverse NDM-1-mediated carbapenem resistance in bacteria. E. coli BL21 (DE3) was used as a control in the experiment. E. coli BL21 (DE3)/pET30a-NDM-1 was grown overnight in MH broth media (Tianhe Microbial Agents, Hangzhou, China) containing kanamycin (30 µg/ml) at 37°C. Determination of antibacterial synergy was completed using a twofold serial dilution method, as recommended by CLSI guidelines. […] The 96-well microplates were incubated at 37°C with continuous shaking for 18 h and a reading at 630 nm was taken to determine minimum inhibitory concentrations (MICs), [22]. […] Each concentration reading was repeated three times. All of the above experiments were repeated at least twice.
# [12] = substrate hydrolysis, 20 mM HEPES pH 6.8, 30°C
# T1 sequence (C7C422 29-270 limits assumed): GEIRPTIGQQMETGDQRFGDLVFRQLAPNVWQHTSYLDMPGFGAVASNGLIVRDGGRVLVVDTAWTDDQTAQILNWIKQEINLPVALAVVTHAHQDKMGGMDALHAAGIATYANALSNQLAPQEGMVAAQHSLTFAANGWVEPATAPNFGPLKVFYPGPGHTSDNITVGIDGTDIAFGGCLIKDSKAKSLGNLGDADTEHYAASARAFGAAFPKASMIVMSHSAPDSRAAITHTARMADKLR
Molecule,K m (full-length NDM-1 [1]; [12]),MICs of meropenem in combination with NDM-1 inhibitors ([9]; inhibitor at 6.25 µM) [µg/mL],MICs of meropenem in combination with NDM-1 inhibitors ([9]; inhibitor at 12.5 µM) [µg/mL],MICs of meropenem in combination with NDM-1 inhibitors ([9]; inhibitor at 25.0 µM) [µg/mL],MICs of meropenem in combination with NDM-1 inhibitors ([9]; inhibitor at 50.0 µM) [µg/mL],synergistic antibacterial activity with meropenem [9],pIC50 (full-length NDM-1 [10]),also measured
"C[C@H]1[C@H](NC(=O)/C(=N\OC(C)(C)C(=O)O)c2csc(N)n2)C(=O)N1S(=O)(=O)O [Aztreonam, aztreonam]",,,,,,,,hydrolysis by NDM-1 / kinetic constants (full-length NDM-1 [1]; result in words): kinetic constants could not be calculated
"CC1(C)S[C@@H]2[C@H](NC(=O)[C@H](N)c3ccccc3)C(=O)N2[C@H]1C(=O)O [Ampicillin, ampicillin]",18 ± 1 µM,,,,,,,"K m (full-length NDM-1 [1]; substrate hydrolysis, 20 mM HEPES pH 6.8, 30°C, listed as ampicillin): 18 µM"
full-length NDM-1 (Klebsiella pneumoniae),,,,,,,,kcat [2]: 3 s⁻¹; kcat/Km [2]: 100000 M⁻¹ s⁻¹; kcat [3]: 1.4 s⁻¹; kcat/Km [3]: 40000 M⁻¹ s⁻¹; kcat [4]: 3.6 s⁻¹; kcat/Km [4]: 30000 M⁻¹ s⁻¹; kcat [5]: 10 s⁻¹ and 10.8 s⁻¹; kcat/Km [5]: 90000 M⁻¹ s⁻¹; kcat [6]: 2.6 s⁻¹; kcat/Km [6]: 220000 M⁻¹ s⁻¹; kcat [7]: 10 s⁻¹ and 11.4 s⁻¹; kcat/Km [7]: 630000 M⁻¹ s⁻¹; kcat [8]: 10 s⁻¹ and 16.7 s⁻¹; kcat/Km [8]: 1.28e+06 M⁻¹ s⁻¹
"O=C(O)C(C(=O)O)c1ccsc1 [Compound 5, 3-thiophenemalonic acid]",,256,128,64,32,showed synergistic antibacterial activity,3.21,MICs of meropenem in combination with NDM-1 inhibitors ([9]; inhibitor at 100.0 µM): 16 µg/mL; sensitization of the strain to clinically achievable concentrations of meropenem [9]: able to sensitize the strain to clinically achievable concentrations of meropenem
COC(=O)c1sc(C(=O)OC)c(OCc2ccccc2)c1OCc1ccccc1 [Compound 2],,256,256,256,256,did not exhibited synergistic antibacterial effect,< 4.00,solubility [11]: precipitated out at high concentrations
"CO/N=C(\C(=O)N[C@@H]1C(=O)N2C(C(=O)O)=C(COC(N)=O)CS[C@H]12)c1ccco1 [Cefuroxime, cefuroxime]",12 µM and 12 ± 1 µM,,,,,,,
CC1(C)S[C@@H]2[C@H](NC(=O)Cc3ccccc3)C(=O)N2[C@H]1C(=O)O [Benzylpenicillin],13 ± 1 µM,,,,,,,"K m (full-length NDM-1 [1]; substrate hydrolysis, 20 mM HEPES pH 6.8, 30°C, listed as benzylpenicillin): 13 µM"
COC(=O)c1cc(OCc2ccccc2)c(C(=O)OC)s1 [Compound 1],,256,256,256,256,did not exhibited synergistic antibacterial effect,< 3.52,solubility [11]: precipitated out at high concentrations
"C[C@@H](O)[C@H]1C(=O)N2C(C(=O)O)=C(SCCN=CN)C[C@H]12 [Imipenem, imipenem]",127 ± 11 µM,,,,,,,"K m (full-length NDM-1 [1]; substrate hydrolysis, 20 mM HEPES pH 6.8, 30°C, listed as imipenem): 127 µM"
COC(=O)c1sc(C(=O)OC)c(OCc2nnn[nH]2)c1OCc1nnn[nH]1 [Compound 3],,256,256,128,32,showed synergistic antibacterial activity,3.01,MICs of meropenem in combination with NDM-1 inhibitors ([9]; inhibitor at 100.0 µM): 32 µg/mL; solubility [11]: better solubility
O=C(O)C(C(=O)O)c1cc(Cc2nnn[nH]2)sc1Cc1nnn[nH]1 [Compound 4],,128,64,64,32,showed synergistic antibacterial activity,3.55,MICs of meropenem in combination with NDM-1 inhibitors ([9]; inhibitor at 100.0 µM): 16 µg/mL; sensitization of the strain to clinically achievable concentrations of meropenem [9]: able to sensitize the strain to clinically achievable concentrations of meropenem; solubility [11]: stronger solubility
"C[C@@H](O)[C@H]1C(=O)N2C(C(=O)O)=C(S[C@@H]3CN[C@H](C(=O)N(C)C)C3)[C@H](C)[C@H]12 [Meropenem, meropenem]",68 ± 6 µM,,,,,,,"V max (full-length NDM-1 [1]; [12]): 2.0 ± 0.15 µM/s; k cat (full-length NDM-1 [1]; [12]): 4.0 s⁻¹; K m (full-length NDM-1 [1]; substrate hydrolysis, 20 mM HEPES pH 6.8, 30°C, listed as meropenem): 68 µM; MIC ([9]; Escherichia coli): 256 mg/L; MIC (E. coli BL21 (DE3)): 2 mg/L"
"CC(C)(O/N=C(\C(=O)N[C@@H]1C(=O)N2C(C(=O)[O-])=C(C[n+]3ccccc3)CS[C@H]12)c1csc(N)n1)C(=O)O [Ceftazidime, ceftazidime]",129 ± 9 µM,,,,,,,"K m (full-length NDM-1 [1]; substrate hydrolysis, 20 mM HEPES pH 6.8, 30°C, listed as ceftazidime): 129 µM"
"CO/N=C(\C(=O)N[C@@H]1C(=O)N2C(C(=O)O)=CCS[C@H]12)c1csc(N)n1 [Ceftizoxime, ceftizoxime]",29 ± 2 µM,,,,,,,
"Cc1cc(O)c(C(=O)N[C@@H](C(=O)N[C@@H]2C(=O)N3C(C(=O)O)=C(CSc4nnnn4C)CS[C@H]23)c2ccc(O)cc2)cn1 [Cefpiramide, cefpiramide]",39 ± 3 µM,,,,,,,
